Results taken from ChEMBL document CHEMBL5149994, “Anticancer potential of indirubins in medicinal chemistry: Biological activity, structural modification, and structure-activity relationship” (Eur J Med Chem, 2021).
Each block holds one molecule with its values, some of them ahead of it.

Legend:
Format in all cases: functional
[1] = Antiproliferative activity against human TT cells assessed as cell growth inhibition measured after 72 hrs by EZ-CyTox reagent based analysis
[2] = Antitumor activity against human TT cells xenografted in BALB/c nu/nu mouse assessed as reduction in tumour weight at 40 mg/kg per day, po administered via oral gavage daily measured after 21 days relative to control; parameters: scale not given: the % may be the effect or the level left; details: time 21 day
[3] = test system: MV4-11; assay: Antiproliferative activity against human MV4-11 cells assessed as cell growth inhibition
[4] = test system: SNU-638; assay: Antiproliferative activity against human SNU-638 cells assessed as cell growth inhibition
[5] = test system: MV4-11; assay: Antitumor activity against human MV4-11 cells xenografted in mouse assessed as reduction in tumour volume at 10 mg/kg per day, iv measured after 21 days relative to control; parameters: scale not given: the % may be the effect or the level left; details: time 21 day
[6] = test system: PC-3; assay: Antiproliferative activity against human PC-3 cells assessed as cell growth inhibition
[7] = test system: MeWo; assay: Antitumor activity against human MeWo cells xenografted in mouse assessed as reduction in tumour volume at 50 mg/kg per day, po administered via oral gavage measured after 14 days relative to control; parameters: scale not given: the % may be the effect or the level left; details: time 14 day

SMILES: Cl.O=C1Nc2ccccc2/C1=C1/Nc2ccccc2/C1=N\OCCN1CCNCC1
- GI50 [1]: 68200 nM
- Activity [2]: 62.5%

- GI50 [3]: 1.2 nM
- GI50 [4]: 2250 nM
- GI50 [6]: 1100 nM
SMILES: COC(=O)c1ccc2c(c1)/C(=C1/Nc3ccccc3/C1=N\OCCN1CCNCC1)C(=O)N2.Cl.Cl
- Activity [5]: 100%

SMILES: Cl.Cl.O=C1Nc2c(Br)cccc2/C1=C1/Nc2ccccc2/C1=N\OCCN1CCNCC1
- Activity [7]: 37%
